Measurements taken from patent US4220587A, “Amino acid derivatives of 6-(2-amino-2-arylacetamido)penicillanic acids” (Mitsubishi Chemical Industries, Limited, priority 1975, dated 1980).
≈ marks a conversion by molar mass, not a printed value. Read-outs that look alike come from different tables or passages of the source.

Tests used:
Type in all cases: cell-based
[1] = test system: Salmonella typhimurium (TA 100); assay: MIC, agar dilution, Salmonella typhimurium; conditions: Salmonella enterica, read-out: Minimum Inhibitory Concentration (MIC)
Protocol: (§1) The compounds of this invention were tested for antibacterial activity according to the following procedure. Nutrient broth and nutrient agar were prepared according to the conventional procedure. […] was used as a vehicle. The stock solution was prepared at 100 μg/ml of the test material in the vehicle. Two-fold dilutions were made with the vehicle and then the diluted stock solution was added to a petri dish and solidified by chilling. Test organisms were grown in the nutrient broth for 20 hours at 37° C. The hardened surface was inoculated with a loopful of the test organism solution containing 1×10^6 cells per milliliter and incubated for 20 hours at 37° C. At the end of this period, growth of the organism was observed. […] The following Table 1 summarizes the activity of representative compounds as active antibacterial agents, and compares them with the prior art compounds and the reference drug Sulbenicillin.

[2] = test system: Proteus mirabilis (IFO 3849); assay: MIC, agar dilution, Proteus mirabilis; conditions: Proteus mirabilis, IFO3849, 20 h, read-out: Minimum Inhibitory Concentration (MIC)
Protocol: as §1

Staph. aureus (FDA 209P) = assay: MIC, agar dilution, Staph. aureus; conditions: Staphylococcus aureus, FDA209P, 20 h, read-out: Minimum Inhibitory Concentration (MIC)
Protocol: as §1

E. coli (NIHJ) = assay: MIC, agar dilution, E. coli; conditions: Escherichia coli, 20 h, read-out: Minimum Inhibitory Concentration (MIC)
Protocol: as §1

[3] = test system: Proteus morgani (IFO 3848); assay: MIC, agar dilution, Proteus morgani; conditions: Morganella morganii, IFO3848, 20 h, read-out: Minimum Inhibitory Concentration (MIC)
Protocol: as §1

Pseudomonas aeruginosa = assay: MIC, agar dilution, Pseudomonas aeruginosa (strain not given); conditions: ATCC 15691 / ATCC 15692, 20 h, read-out: Minimum Inhibitory Concentration (MIC)
Protocol: as §1

[4] = test system: Proteus vulgaris (IFO 3045); assay: MIC, agar dilution, Proteus vulgaris; conditions: Proteus vulgaris, IFO3045, 20 h, read-out: Minimum Inhibitory Concentration (MIC)
Protocol: as §1

[5] = test system: Klebsiella pneumoniae (ATCC 25955); assay: MIC, agar dilution, Klebsiella pneumoniae; conditions: Klebsiella pneumoniae, ATCC25955, 20 h, read-out: Minimum Inhibitory Concentration (MIC)
Protocol: as §1

[6] = test system: Pseudomonas aeruginosa (ATCC 15691); assay: MIC, agar dilution, Pseudomonas aeruginosa ATCC 15691; conditions: ATCC15691, 20 h, read-out: Minimum Inhibitory Concentration (MIC)
Protocol: as §1

[7] = test system: Pseudomonas aeruginosa M-16; assay: MIC, agar dilution, Pseudomonas aeruginosa M-16; conditions: M16, 20 h, read-out: Minimum Inhibitory Concentration (MIC)
Protocol: as §1
^*3 streptomycin, chloramphenicol and mercury resistant strain derive

[8] = test system: Pseudomonas aeruginosa M-12; assay: MIC, agar dilution, Pseudomonas aeruginosa M-12; conditions: ATCC15692, 20 h, read-out: Minimum Inhibitory Concentration (MIC)
Protocol: as §1
^*2 chloramphenicol resistant strain derived from Pseudomonas

[9] = Salmonella typhimurium TA 100, ampicillin resistant strain, nutrient agar, 20 hours at 37° C.

CC(C)C[C@H](C(=O)N[C@@H](C(=O)N[C@@H]1C(=O)N2[C@@H]1SC(C)(C)[C@@H]2C(=O)O)c1ccccc1)N(C)C(=O)OCc1ccccc1 [Compound 24]
MIC ([1]; TYPHIMURIUM, 20 h): < 6.25 µg/mL
MIC [2]: 100 µg/mL (≈ 164 µM)
MIC (Staph. aureus (FDA 209P)): 0.62 µg/mL (≈ 1.02 µM)
MIC (E. coli (NIHJ)): 50 µg/mL (≈ 81.9 µM)
MIC [3]: 100 µg/mL (≈ 164 µM)
MIC (Pseudomonas aeruginosa): 100 µg/mL (≈ 164 µM)
MIC [4]: 100 µg/mL (≈ 164 µM)

CC1(C)S[C@@H]2[C@H](NC(=O)[C@H](NC(=O)C3CCCCN3C(N)=O)c3ccccc3)C(=O)N2[C@H]1C(=O)O (some centres unmarked) [Compound 11]
MIC (Staph. aureus (FDA 209P)): 0.31 µg/mL (≈ 0.616 µM)

CN[C@H](C)C(=O)N[C@@H](C(=O)N[C@@H]1C(=O)N2[C@@H]1SC(C)(C)[C@@H]2C(=O)O)c1ccc(O)cc1 [Compound 21]
MIC [2]: 6.2 µg/mL (≈ 13.8 µM)
MIC (Staph. aureus (FDA 209P)): 1.87 µg/mL (≈ 4.15 µM)
MIC (E. coli (NIHJ)): 12.3 µg/mL (≈ 27.3 µM)
MIC [3]: 3.1 µg/mL (≈ 6.88 µM)
MIC [4]: 4.7 µg/mL (≈ 10.4 µM)

CC1(C)S[C@@H]2[C@H](NC(=O)[C@H](NC(=O)[C@@H]3CCCN3C(=O)OCc3ccccc3)c3ccc(O)cc3)C(=O)N2[C@H]1C(=O)O [Compound 6]
MIC (Staph. aureus (FDA 209P)): 1.25 µg/mL (≈ 2.09 µM)

CC1(C)S[C@@H]2[C@H](NC(=O)[C@H](NC(=O)[C@H]3CCCCN3)c3ccc(O)cc3)C(=O)N2[C@H]1C(=O)O [Compound 7]
MIC [2]: 9 µg/mL (≈ 18.9 µM)
MIC (Staph. aureus (FDA 209P)): 1.25 µg/mL (≈ 2.62 µM)
MIC (E. coli (NIHJ)): 25 µg/mL (≈ 52.5 µM)
MIC [3]: < 6.2 µg/mL
MIC [5]: 9 µg/mL (≈ 18.9 µM)
MIC [4]: < 6.2 µg/mL

CC1(C)S[C@@H]2[C@H](NC(=O)[C@H](NC(=O)[C@H]3CCN3)c3ccc(O)cc3)C(=O)N2[C@H]1C(=O)O [Compound 29]
MIC [2]: 3.1 µg/mL (≈ 6.91 µM)
MIC (Staph. aureus (FDA 209P)): 5 µg/mL (≈ 11.1 µM)
MIC (E. coli (NIHJ)): 18.7 µg/mL (≈ 41.7 µM)
MIC [3]: 3.1 µg/mL (≈ 6.91 µM)
MIC (Pseudomonas aeruginosa): 37.5 µg/mL (≈ 83.6 µM)
MIC [4]: 3.1 µg/mL (≈ 6.91 µM)

CN(C(=O)OCc1ccccc1)[C@@H](C(=O)N[C@@H](C(=O)N[C@@H]1C(=O)N2[C@@H]1SC(C)(C)[C@@H]2C(=O)O)c1ccccc1)c1ccccc1 [Compound 25]
MIC [1, 9]: 12.5 µg/mL (≈ 19.8 µM)
MIC [2]: 25 µg/mL (≈ 39.6 µM)
MIC (Staph. aureus (FDA 209P)): 3.62 µg/mL (≈ 5.74 µM)
MIC (E. coli (NIHJ)): 50 µg/mL (≈ 79.3 µM)
MIC [3]: 25 µg/mL (≈ 39.6 µM)
MIC [4]: 25 µg/mL (≈ 39.6 µM)

CN[C@H](C)C(=O)N[C@@H](C(=O)N[C@@H]1C(=O)N2[C@@H]1SC(C)(C)[C@@H]2C(=O)O)c1ccccc1 [Compound 20]
MIC [2]: 9.3 µg/mL (≈ 21.4 µM)
MIC (Staph. aureus (FDA 209P)): 1.87 µg/mL (≈ 4.3 µM)
MIC (E. coli (NIHJ)): 25 µg/mL (≈ 57.5 µM)
MIC [3]: 9.3 µg/mL (≈ 21.4 µM)
MIC (Pseudomonas aeruginosa): 37.5 µg/mL (≈ 86.3 µM)
MIC [4]: 6.2 µg/mL (≈ 14.3 µM)

CC1(C)S[C@@H]2[C@H](NC(=O)[C@H](NC(=O)[C@H]3CCN3)c3ccccc3)C(=O)N2[C@H]1C(=O)O [Compound 28]
MIC [2]: 6.2 µg/mL (≈ 14.3 µM)
MIC (Staph. aureus (FDA 209P)): 3.75 µg/mL (≈ 8.67 µM)
MIC (E. coli (NIHJ)): 50 µg/mL (≈ 116 µM)
MIC [3]: 12.5 µg/mL (≈ 28.9 µM)
MIC (Pseudomonas aeruginosa): 25 µg/mL (≈ 57.8 µM)
MIC [4]: 6.2 µg/mL (≈ 14.3 µM)

CC1(C)S[C@@H]2[C@H](NC(=O)[C@H](NC(=O)[C@H]3CCCCN3C(N)=O)c3ccccc3)C(=O)N2[C@H]1C(=O)O [Compound 10]
MIC (Staph. aureus (FDA 209P)): 0.31 µg/mL (≈ 0.616 µM)

CC1(C)S[C@@H]2[C@H](NC(=O)[C@H](NC(=O)[C@H]3CCCCN3)c3ccccc3)C(=O)N2[C@H]1C(=O)O [Compound 12]
MIC (Staph. aureus (FDA 209P)): 1.25 µg/mL (≈ 2.71 µM)

CC1(C)S[C@@H]2[C@H](NC(=O)[C@H](NC(=O)[C@H]3CCCCN3C(=O)OCc3ccccc3)c3ccccc3)C(=O)N2[C@H]1C(=O)O [Compound 9]
MIC (Staph. aureus (FDA 209P)): 0.62 µg/mL (≈ 1.04 µM)

Cc1ccc(S(=O)(=O)N(C)[C@H](C)C(=O)N[C@@H](C(=O)N[C@@H]2C(=O)N3[C@@H]2SC(C)(C)[C@@H]3C(=O)O)c2ccccc2)cc1 [Compound 17]
MIC [1, 9]: 12.5 µg/mL (≈ 21.2 µM)
MIC [2]: 12.5 µg/mL (≈ 21.2 µM)
MIC (Staph. aureus (FDA 209P)): 0.15 µg/mL (≈ 0.255 µM)
MIC (E. coli (NIHJ)): 25 µg/mL (≈ 42.5 µM)
MIC [3]: 9 µg/mL (≈ 15.3 µM)
MIC (Pseudomonas aeruginosa): 25 µg/mL (≈ 42.5 µM)
MIC [4]: 12.5 µg/mL (≈ 21.2 µM)

CC1(C)S[C@@H]2[C@H](NC(=O)[C@H](NC(=O)C3Cc4ccccc4CN3)c3ccccc3)C(=O)N2[C@H]1C(=O)O (some centres unmarked) [Compound 16]
MIC (Staph. aureus (FDA 209P)): 0.46 µg/mL (≈ 0.904 µM)

Cc1ccc(S(=O)(=O)N(C)[C@@H](C(=O)N[C@@H](C(=O)N[C@@H]2C(=O)N3[C@@H]2SC(C)(C)[C@@H]3C(=O)O)c2ccccc2)c2ccccc2)cc1 [Compound 26]
MIC (Staph. aureus (FDA 209P)): 0.62 µg/mL (≈ 0.953 µM)

CC1(C)S[C@@H]2[C@H](NC(=O)[C@H](NC(=O)C3NCc4ccccc43)c3ccccc3)C(=O)N2[C@H]1C(=O)O (some centres unmarked) [Compound 14]
MIC (Staph. aureus (FDA 209P)): 0.31 µg/mL (≈ 0.627 µM)

CC1(C)S[C@@H]2[C@H](NC(=O)[C@H](NC(=O)[C@H]3CCCN3)c3ccccc3)C(=O)N2[C@H]1C(=O)O [Compound 1]
MIC [6]: 12.5 µg/mL (≈ 28 µM)
MIC [2]: 1.5 µg/mL (≈ 3.36 µM)
MIC (Staph. aureus (FDA 209P)): 0.45 µg/mL (≈ 1.01 µM)
MIC (E. coli (NIHJ)): 6.2 µg/mL (≈ 13.9 µM)
MIC [7]: 3.1 µg/mL (≈ 6.94 µM)
MIC [3]: 3.1 µg/mL (≈ 6.94 µM)
MIC [5]: 50 µg/mL (≈ 112 µM)
MIC [4]: 1.5 µg/mL (≈ 3.36 µM)
MIC [8]: 3.1 µg/mL (≈ 6.94 µM)

Cc1ccc(S(=O)(=O)N(C)[C@H](C)C(=O)N[C@@H](C(=O)N[C@@H]2C(=O)N3[C@@H]2SC(C)(C)[C@@H]3C(=O)O)c2ccc(O)cc2)cc1 [Compound 18]
MIC (Staph. aureus (FDA 209P)): 0.31 µg/mL (≈ 0.513 µM)

Cc1ccc(S(=O)(=O)N(C)CC(=O)N[C@@H](C(=O)N[C@@H]2C(=O)N3[C@@H]2SC(C)(C)[C@@H]3C(=O)O)c2ccccc2)cc1 [Compound 22]
MIC [2]: 23 µg/mL (≈ 40 µM)
MIC (Staph. aureus (FDA 209P)): 0.31 µg/mL (≈ 0.539 µM)
MIC (E. coli (NIHJ)): 25 µg/mL (≈ 43.5 µM)
MIC [3]: 12.5 µg/mL (≈ 21.8 µM)
MIC (Pseudomonas aeruginosa): 25 µg/mL (≈ 43.5 µM)
MIC [4]: 25 µg/mL (≈ 43.5 µM)

CC1(C)S[C@@H]2[C@H](NC(=O)[C@H](NC(=O)[C@H]3CCCN3C(=O)OCc3ccccc3)c3ccccc3)C(=O)N2[C@H]1C(=O)O [Compound 2, potassium 6-[D-2-(N-benzyloxycarbonyl-D-prolyl)amino-2-phenylacetamido]penicillanatemonohydrate]
MIC (Staph. aureus (FDA 209P)): 1.25 µg/mL

CC1(C)S[C@@H]2[C@H](NC(=O)[C@H](NC(=O)C3CCCCN3)c3ccccc3)C(=O)N2[C@H]1C(=O)O (some centres unmarked) [Compound 13]
MIC (Staph. aureus (FDA 209P)): 3.75 µg/mL (≈ 8.14 µM)

CN[C@H](CC(C)C)C(=O)N[C@@H](C(=O)N[C@@H]1C(=O)N2[C@@H]1SC(C)(C)[C@@H]2C(=O)O)c1ccccc1 [Compound 27]
MIC (Staph. aureus (FDA 209P)): 0.62 µg/mL (≈ 1.3 µM)

Cc1ccc(S(=O)(=O)N(C)[C@H](CC(C)C)C(=O)N[C@@H](C(=O)N[C@@H]2C(=O)N3[C@@H]2SC(C)(C)[C@@H]3C(=O)O)c2ccccc2)cc1 [Compound 23]
MIC (Staph. aureus (FDA 209P)): 0.62 µg/mL (≈ 0.983 µM)

Cc1ccc(S(=O)(=O)N(C)C(C)C(=O)N[C@@H](C(=O)N[C@@H]2C(=O)N3[C@@H]2SC(C)(C)[C@@H]3C(=O)O)c2ccccc2)cc1 (some centres unmarked) [Compound 19]
MIC ([1]; TYPHIMURIUM, 20 h): 9 µg/mL (≈ 15.3 µM)
MIC [2]: 12.5 µg/mL (≈ 21.2 µM)
MIC (Staph. aureus (FDA 209P)): 0.15 µg/mL (≈ 0.255 µM)
MIC (E. coli (NIHJ)): 25 µg/mL (≈ 42.5 µM)
MIC [3]: 12.5 µg/mL (≈ 21.2 µM)
MIC (Pseudomonas aeruginosa): 37 µg/mL (≈ 62.8 µM)
MIC [4]: 12.5 µg/mL (≈ 21.2 µM)

CC1(C)S[C@@H]2[C@H](NC(=O)[C@H](NC(=O)[C@H]3CCCCN3C(=O)OCc3ccccc3)c3ccc(O)cc3)C(=O)N2[C@H]1C(=O)O [Compound 8]
MIC (Staph. aureus (FDA 209P)): 1.25 µg/mL (≈ 2.05 µM)

CC1(C)S[C@@H]2[C@H](NC(=O)[C@H](NC(=O)[C@H]3CCCN3C(=O)OCc3ccccc3)c3ccc(O)cc3)C(=O)N2[C@H]1C(=O)O [Compound 5]
MIC (Staph. aureus (FDA 209P)): 2.5 µg/mL (≈ 4.19 µM)
